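Growth conditions: 96-well plates. Treatment: test compound, 48 hours, 5 concentrations. Analysis: linear interpolation between bracketing concentrations; unreached endpoints set to highest concentration. TGI marks complete inhibition of growth.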
Tests used:
Assay in all cases: NCI anticancer screen, dose series, 48 h
BT-549 breast = tested on: BT-549 breast
RPMI-8226 leukemia = tested on: RPMI-8226 leukemia
OVCAR-8 ovarian = tested on: OVCAR-8 ovarian
NCI-H226 lung = tested on: NCI-H226 lung
UACC-257 melanoma = tested on: UACC-257 melanoma
MDA-N = tested on: MDA-N
HS 578T breast = tested on: HS 578T breast
UO-31 renal = tested on: UO-31 renal
SNB-75 CNS = tested on: SNB-75 CNS
SW-620 colon = tested on: SW-620 colon

Row | SMILES | TGI (BT-549 breast) [µM] | TGI (RPMI-8226 leukemia) [µM] | TGI (OVCAR-8 ovarian) [µM] | TGI (NCI-H226 lung) [µM] | TGI (UACC-257 melanoma) [µM] | TGI (MDA-N) [µM] | TGI (HS 578T breast) [µM] | TGI (UO-31 renal) [µM] | TGI (SNB-75 CNS) [µM] | TGI (SW-620 colon) [µM]
1 | Clc1ccccc1/C=C/c1nsc(/C=C/c2ccccc2Cl)n1 | > 100 | 84.5 | > 100 | > 100 | 64.1 | > 100 | > 100 | > 100 | > 100 | 
2 | N#Cc1ncn(-c2ccccc2)c1N | > 100 | > 100 | > 100 | > 100 | > 100 | > 100 | > 100 | > 100 | > 100 | > 100
3 | OC1c2ccccc2[C@@H]2[C@H]1[C@@H](c1ccccc1)C1(Cc3ccccc3C1O)[C@H]2c1ccccc1 (stereo partly specified) | 28.6 | 9.89 | 15.3 | 19.4 | 11.1 | 13.7 | 25.1 | 20.3 | 21.5 | 17.4
4 | CC(=O)N1c2ccccc2C(C)(C)OC1C(Cl)(Cl)Cl (stereo unspecified) | 81 | 33.6 | > 100 | > 100 | 84.3 | 83.1 | > 100 | > 100 | 71.9 | > 100
5 | CCCCCCCCCCCCCCCC(=O)ON1C(=S)NC(C)(c2ccccc2)C1=S (stereo unspecified) | > 100 | > 100 | > 100 | > 100 | > 100 | > 100 | > 100 | > 100 | > 100 | 
6 | O=C(CCCN1CCC2(CC1)C(=O)NC(=O)N2c1ccccc1)c1ccc(F)cc1 | > 100 | > 100 | > 100 | > 100 | > 100 | > 100 | > 100 | > 100 | > 100 | > 100
7 | CC(NC1=CC(=O)c2ncccc2C1=O)C(O)c1ccccc1 (stereo unspecified) | 7.25 | 53.9 | 36.2 | 20.8 | 10.6 | 3 | 25.1 | 17.2 | 9.6 | 19.8
8 | O=C(O)C(Cc1ccc2c(c1)CCC2)(Cc1ccc2c(c1)CCC2)C(=O)O | > 100 | > 100 | > 100 | > 100 | > 100 | > 100 | > 100 | > 100 | > 100 | > 100
9 | Oc1c(C2=NNC(c3cccs3)C2)ccc2ccccc12 (stereo unspecified) | > 100 | 77.9 | 94.2 | > 100 | > 100 | 35.3 | 74.5 | > 100 | > 100 | 70.3
10 | Cc1c2c(c(C)n1-c1ccccc1)C(=O)N(CCSC(=N)N)C2=O | > 100 | > 100 | > 100 | > 100 | > 100 | > 100 | > 100 | > 100 | > 100 | > 100
11 | N#Cc1cccc(C2ON=C(c3ccc([N+](=O)[O-])cc3)N2C23CC4CC(CC(C4)C2)C3)c1 (stereo unspecified) | > 100 | > 100 | > 100 | > 100 | > 100 | > 100 | > 100 | > 100 | > 100 | > 100
12 | CC(=O)OCC1OC(Nc2ccc3nc(C)n(-c4cccc(C)c4)c(=O)c3c2)C(OC(C)=O)C(OC(C)=O)C1OC(C)=O (stereo unspecified) | > 62.5 | > 62.5 | > 62.5 | > 62.5 | > 62.5 | > 62.5 | > 62.5 | > 62.5 | > 62.5 | > 62.5
13 | O=C1C(C(O)(C(F)(F)Cl)C(F)(F)Cl)CCC1C(O)(C(F)(F)Cl)C(F)(F)Cl (stereo unspecified) | > 10 | > 10 | > 10 | 9.46 | > 10 | > 10 | 5.44 |  | > 10 | > 10
14 | O=C(NCCN1C(=O)CN=C(c2ccc(Cl)cc2)c2cc(Cl)ccc21)OCc1ccccc1 | 32.4 | 53.9 | 38.3 | 35.5 | 34.1 | 31.9 | 40.7 | 24.7 | 42.2 | > 100
15 | COc1cc2c(cc1OC)C1Cc3ccccc3CCN1CC2 (stereo unspecified) | > 100 | > 100 | > 100 | > 100 | > 100 | > 100 | > 100 | > 100 | > 100 | > 100
16 | CNNC1=NS(=O)(=O)c2cc(C)c(Cl)cc2S1 | > 10 | > 10 | > 10 | > 10 | > 10 | > 10 | > 10 | 0.0901 | > 10 | > 10
17 | CN(C)CCOc1ccc(I)cc1Cc1ccccc1 | 28.6 | 23.9 | 30.6 | 33.9 | 29.2 | 17.4 | 29.3 | 20.4 | 6.79 | 32.4
18 | O=[N+]([O-])c1ccc(Cl)cc1-n1nc(-c2ccccc2)cc1-c1ccccc1 | > 100 | > 100 | > 100 | > 100 | > 100 | > 100 | > 100 | > 100 | > 100 | > 100
19 | Cc1cccc(/C=N/NC(=S)NCc2ccccn2)n1 | > 100 | > 100 | > 100 | > 100 | > 100 | > 100 | > 100 | 60 | 73.6 | > 100
20 | CCC1(OC(=O)CN2CCN(CCO)CC2)C(=O)OCc2c1cc1n(c2=O)Cc2cc3ccccc3nc2-1 (stereo unspecified) | 20.4 | 5.28 | 16 | 2.2 | 8.05 | 13.1 | > 85.8 | 0.851 | 1.92 | 10.3
21 | O/N=c1/ccn(O)c2ccccc12 | 3.13 | 0.542 | 1.81 | 7.14 | 21 | 17.5 | > 100 | 3.93 | 1.98 | 11.8

Row | SMILES | TGI (BT-549 breast) [µM] | TGI (RPMI-8226 leukemia) [µM] | TGI (OVCAR-8 ovarian) [µM] | TGI (NCI-H226 lung) [µM] | TGI (UACC-257 melanoma) [µM] | TGI (MDA-N) [µM] | TGI (HS 578T breast) [µM] | TGI (UO-31 renal) [µM] | TGI (SNB-75 CNS) [µM] | TGI (SW-620 colon) [µM]
22 | CCOC(=O)N1CCN(Cc2cc(=O)n3cc(C)ccc3n2)CC1 | > 100 | > 100 | > 100 | > 100 | > 100 | > 100 | > 100 | > 100 | > 100 | > 100
23 | O=C(O)c1cccc(S(=O)(=O)NN2C(=O)CSC2c2ccccc2)c1 (stereo unspecified) | > 100 | > 100 | > 100 | > 100 | > 100 | > 100 | > 100 | > 100 | > 100 | > 100
24 | COc1cc(N(CCC#N)CCC#N)ccc1/C(N=Nc1ccc(C)cc1)=N/NC(=O)c1cc(Br)ccc1O | 62.6 | > 100 | 88 | > 100 | 83.8 | > 100 | > 100 | 60.3 | 75 | > 100
25 | COc1ccccc1/C=C1\Sc2scc(-c3cccc([N+](=O)[O-])c3)[n+]2C1=O | 12.6 | 9.28 | 24.8 | 33.5 | 19.8 | 12.3 | > 62.6 | 9.86 | 34.4 | > 36.4
26 | Cc1cn(CC2=NCCN2)c(=O)[nH]c1=O | > 100 | > 100 | > 100 | > 100 | > 100 | > 100 | > 100 | > 100 | > 100 | > 100
27 | CC(=O)Oc1c(C)cc(-c2cc(C)c(OC(C)=O)c(C)c2)cc1C | > 100 | > 100 | > 100 | 94.4 | > 100 | 25.6 | 60.1 | 84.6 | 60.9 | > 100
28 | COC(=O)C1Cc2c([nH]c3ccccc23)C(c2cccc(O)c2)N1 (stereo unspecified) | 72 | 87.3 | > 100 | > 100 | > 100 | 40.1 | > 100 | > 100 | 74.3 | 60.8
29 | CC[C@@H](CCCC[C@@H]1CC[C@H]2CC(=O)C[C@@H]12)OC | > 100 | > 100 | > 100 | > 100 | > 100 | > 100 | > 100 |  | > 100 | > 100
30 | Nc1nc(Cl)c(C=O)c(NCC2(CO)CC(CCc3ccccc3)C2)n1 (stereo unspecified) | 27.5 | 35.8 | 6.03 | 27.7 | 21.3 | 18.1 | 84.6 | 2.91 | 37.5 | 15.3
31 | CC(=O)Oc1ccccc1[C@H]1CC(=O)C[C@H](c2ccccc2OC(C)=O)C12C(=O)c1ccccc1C2=O | 84.5 | > 100 | > 100 | 74 |  | 47.3 | > 100 | > 100 | > 100 | 
32 | CC(C)(C)c1cc(C(=O)/C=C/c2ccc(O)c(O)c2O)cc(C(C)(C)C)c1O | 28.2 | 4.4 | > 63.7 | 33.2 | 10.6 | 28.9 | > 45.1 | 13.9 | 12.6 | 17.9
33 | COc1ccc2c(c1)c1nn(CCN(C)C)c3ccc4c(=O)n(CCN(C)C)c(=O)n2c4c13 | 2.6 | < 0.0192 | 0.175 | 1.1 | 0.717 | 0.186 | 0.244 | 0.329 | 0.0778 | 0.355
34 | Cc1nc(-c2ccccc2)c(C)n2c1nc1ccccc12 | 65.5 | 40.6 | 70.1 | > 100 | > 100 | > 100 | > 100 | 79.1 | 66.3 | > 100
35 | CC(CC(=O)CO[C@H]1[C@H](O)[C@@H](O)[C@@H](O)[C@@H]2NC(=O)c3c(cc4c(c3O)OCO4)[C@H]21)OC1OC(CO)C(O)C(O)C1O (stereo partly specified) | 3.76 | 2.07 | 2.07 | 3.54 | 6.19 | 3.91 | 3.76 | 8.11 | 0.884 | 
36 | CN(C)CCN1C(=O)CC[C@@]2(C)C1=CC[C@@H]1[C@@H]2CC[C@@]2(C)[C@H]1CC[C@]2(C)O | > 100 | > 100 | > 100 | > 100 | > 100 | > 100 | > 100 | > 100 | > 100 | > 100
37 | NS(=O)(=O)c1ccc(NC(=O)c2cc([N+](=O)[O-])cc([N+](=O)[O-])c2)cc1 | > 100 | > 100 | > 100 | > 100 | 32 | 47.2 | > 100 | > 100 | > 100 | > 100
38 | COc1ccc(NC(=O)CC(=O)n2nc(C)c(N=Nc3ccc(C)c(C)c3)c2C)cc1 | > 100 | > 100 | > 100 | > 100 |  | > 100 | 97.4 | 54.8 | 87 | > 100
39 | COc1c(Cl)ccc(Cl)c1C(=O)NNC(=O)c1c(Cl)c(Cl)c(Cl)c(Cl)c1-c1nc2ccc(C(=O)c3ccccc3)cc2[nH]1 | > 100 | 90.8 | > 100 | > 100 | > 100 | > 100 | > 100 | > 100 | > 100 | > 100
40 | Cc1cc(S(N)(=O)=O)c(SCc2nc(N)nc(N(C)C)n2)cc1Cl | > 10 | > 10 | > 10 | > 10 | > 10 | > 10 | > 10 | > 10 | > 10 | > 10
41 | Cn1c(=O)n2n(c1=O)Cc1cccc3cccc(c13)C2 | > 100 | > 100 | > 100 | > 100 | > 100 | > 100 | > 100 | > 100 | > 100 | > 100
42 | CC(=O)Oc1ccc(N2C(=O)C3c4[nH]c5ccccc5c4C4CCC(C(C)(C)C)CC4C3C2=O)cc1 (stereo unspecified) | 14.9 | > 100 | 13.5 | 26.1 | 24 | 14.1 | 8.82 | 17.7 |  | 5.16
